# Assay results from the NIST ThermoML archive (doi:10.1016/j.fluid.2015.01.026).
# Numbers after ± are expanded uncertainties.
# Details: 298.15 K; 101.33 kPa; Liquid; Vibrating tube method
row,Compound,mass density [kg/m3]
1,CC(=O)c1ccccc1 [acetophenone],1023.05 ± 0.25
2,CCCCCCCCCC [decane],726.347 ± 0.24
3,CCCCCCCCCCCCCCCC [hexadecane],770.221 ± 0.24

# The next lines start with the values.
row,mass density [kg/m3],Compound
1,741.523 ± 0.58,CCCCCCCCCCCC [dodecane]
2,759.275 ± 0.24,CCCCCCCCCCCCCC [tetradecane]
